Experiment [1] deals with T1, SARS-CoV-2 PLpro (nsp3 1564–1878) (Severe acute respiratory syndrome coronavirus 2, UniProt P0DTD1). The experiment is described as follows: biochemical. More on the design: FRET-quenched peptide (Pro3) cleavage by PLpro, 10 min pre-incubation, slope over 20 min, normalised to no-compound control. As to conditions: low concentration screen, read-out: % of control remaining.

In experiment [2] the target is T1, SARS-CoV-2 PLpro (nsp3 1564–1878). The experiment is described as follows: biochemical. To be noted: high concentration screen, read-out: % of control remaining. Further details: FRET-quenched peptide (Pro3) cleavage by PLpro, 10 min pre-incubation, slope over 20 min, normalised to no-compound control.

Structures can show the parent of a compound that is named as a salt. Where two headings read alike, the source gives them in different places.

`CC(C)=CCC/C(C)=C/CC/C(C)=C/CSc1ccccc1C(=O)O` [Salirasib]: the remaining activity at 1.25 µM in experiment [1] (Well no.=6668) was 104%. In experiment [2] (Well no.=6668), the remaining activity at 3.75 µM came out at 105%.
As to `OCc1cc(C(O)CNCCCCCCOCCCCc2ccccc2)ccc1O` (stereo not shown) [Salmeterol], in experiment [1] (Well no.=1414), the remaining activity at 1.25 µM stood at 98.7%. Moreover, the remaining activity at 3.75 µM in experiment [2] (Well no.=1414) was determined as 99.5%.
`COc1cc2c(cc1O)CCN[C@@H]2C` [Salsoline]: the remaining activity at 1.25 µM in experiment [1] (Well no.=3715) was 100%. The remaining activity at 3.75 µM in experiment [2] (Well no.=3715) came to 102%.
In the case of `O=C(/C=C/c1ccccc1)NC(NC(=S)Nc1cccc2cccnc12)C(Cl)(Cl)Cl` (stereo not shown) [Salubrinal], the remaining activity at 1.25 µM in experiment [1] (Well no.=4877) turned out to be 98.9%. The remaining activity at 3.75 µM in experiment [2] (Well no.=4877) amounted to 99.5%.
Take `C[n+]1cc2c3c(ccc2c2ccc4cc5c(cc4c21)OCO5)OCO3` [Sanguinarine (chloride)]: the remaining activity at 1.25 µM in experiment [1] (Well no.=6636) is 99.4%. Further, the remaining activity at 3.75 µM in experiment [2] (Well no.=6636) stood at 98.9%.
In the case of `C[n+]1cc2c3c(ccc2c2ccc4cc5c(cc4c21)OCO5)OCO3` [Sanguinarine chloride], in experiment [1] (Well no.=1458), the remaining activity at 1.25 µM turned out to be 87.2%. Also, the remaining activity at 3.75 µM in experiment [2] (Well no.=1458) was 86.2%.
On to `C[n+]1cc2c3c(ccc2c2ccc4cc5c(cc4c21)OCO5)OCO3` [Sanguinarine], for which, in experiment [1] (Well no.=3779), the remaining activity at 1.25 µM was 94.3%. Besides, in experiment [2] (Well no.=3779), the remaining activity at 3.75 µM worked out at 90.1%.
With `CC1=C2[C@H]3OC(=O)[C@@H](C)[C@@H]3CC[C@@]2(C)C=CC1=O` [Santonin], in experiment [1] (Well no.=3717), the remaining activity at 1.25 µM is 90%. For the same compound, in experiment [2] (Well no.=3717), the remaining activity at 3.75 µM amounted to 95.8%.
`CCCCCCCCCCCCCCCC(=O)Nc1ccn([C@@H]2O[C@H](CO)[C@@H](O)[C@@H]2C#N)c(=O)n1` [Sapacitabine]: the remaining activity at 1.25 µM in experiment [1] (Well no.=7908) stood at 98.8%. Also, the remaining activity at 3.75 µM in experiment [2] (Well no.=7908) came out at 102%.
Consider `O=C(O)c1cn(-c2ccc(F)cc2)c2cc(N3CCNCC3)c(F)cc2c1=O` [Sarafloxacin], for which the remaining activity at 1.25 µM in experiment [1] (Well no.=2241) worked out at 101%. In addition, the remaining activity at 3.75 µM in experiment [2] (Well no.=2241) turned out to be 101%.
On to `CNCC(=O)O` [Sarcosine], for which the remaining activity at 1.25 µM in experiment [1] (Well no.=6727) was 103%. In experiment [2] (Well no.=6727), the remaining activity at 3.75 µM amounted to 102%.
For the compound `COc1cccc(CCc2ccccc2OCC(CN(C)C)OC(=O)CCC(=O)O)c1` (stereo not shown) [Sarpogrelate (hydrochloride)], the remaining activity at 1.25 µM in experiment [1] (Well no.=6228) is 106%. Further, the remaining activity at 3.75 µM in experiment [2] (Well no.=6228) was 96.1%.
On to `C[C@H]1CC[C@@]2(OC1)O[C@H]1C[C@H]3[C@@H]4CC[C@@H]5C[C@@H](O)CC[C@]5(C)[C@H]4CC[C@]3(C)[C@H]1[C@@H]2C` [Sarsasapogenin], for which, in experiment [1] (Well no.=3102), the remaining activity at 1.25 µM came out at 95%. The remaining activity at 3.75 µM in experiment [2] (Well no.=3102) is 92.8%.
For `N#C[C@@H]1C[C@@H]2C[C@@H]2N1C(=O)[C@@H](N)C12CC3CC(CC(O)(C3)C1)C2` [Saxagliptin hydrate], the remaining activity at 1.25 µM in experiment [1] (Well no.=8254) turned out to be 104%. In experiment [2] (Well no.=8254), the remaining activity at 3.75 µM was determined as 102%.
Regarding `COc1cc2c(c(OC)c1OC)-c1c(cc(OC)c(OC)c1OC)C[C@](C)(O)[C@@H](C)C2` [Schisandrin], the remaining activity at 1.25 µM in experiment [1] (Well no.=5408) stood at 95.6%. Also, the remaining activity at 3.75 µM in experiment [2] (Well no.=5408) was 101%.
On to `C=C[C@](C)(O)CC[C@@H]1[C@@]2(C)CCCC(C)(C)[C@@H]2CC[C@@]1(C)O` [Sclareol], for which the remaining activity at 1.25 µM in experiment [1] (Well no.=3388) was found to be 91.2%. Besides, the remaining activity at 3.75 µM in experiment [2] (Well no.=3388) was 96.1%.
Take `CC[C@H](C)/C=C(C)/C=C/C1=CC2=C(Cl)C(=O)[C@](C)(OC(C)=O)C(=O)C2=CO1` [Sclerotiorin]: the remaining activity at 1.25 µM in experiment [1] (Well no.=3604) amounted to 100%. Further, the remaining activity at 3.75 µM in experiment [2] (Well no.=3604) turned out to be 98.6%.
`CN1[C@@H]2CC(O)C[C@H]1[C@@H]1O[C@@H]12` (stereo partly shown) [Scopine (hydrochloride)]: the remaining activity at 1.25 µM in experiment [1] (Well no.=6555) is 94.2%. For the same compound, the remaining activity at 3.75 µM in experiment [2] (Well no.=6555) was 101%.
In the case of `CN1[C@@H]2CC(O)C[C@H]1[C@@H]1O[C@@H]12` (stereo partly shown) [Scopine HCl], the remaining activity at 1.25 µM in experiment [1] (Well no.=4914) was 87.1%. In experiment [2] (Well no.=4914), the remaining activity at 3.75 µM is 84%.
As for `CN1[C@@H]2CC(O)C[C@H]1[C@@H]1O[C@@H]12` (stereo partly shown) [Scopine], in experiment [1] (Well no.=4910), the remaining activity at 1.25 µM is 95.8%. In addition, the remaining activity at 3.75 µM in experiment [2] (Well no.=4910) turned out to be 92.3%.
Regarding `CN1[C@@H]2C[C@@H](OC(=O)[C@H](CO)c3ccccc3)C[C@H]1[C@@H]1O[C@@H]12` [Scopolamine (hydrobromide)], the remaining activity at 1.25 µM in experiment [1] (Well no.=6670) is 102%. The remaining activity at 3.75 µM in experiment [2] (Well no.=6670) was 105%.
For the compound `CCCC[N+]1(C)[C@H]2CC(OC(=O)C(CO)c3ccccc3)C[C@H]1[C@H]1O[C@H]12` (stereo partly shown) [Scopolamine N-butyl], the remaining activity at 1.25 µM in experiment [1] (Well no.=2243) worked out at 95%. Further, in experiment [2] (Well no.=2243), the remaining activity at 3.75 µM was determined as 91.9%.
Turning to `CCCC[N+]1(C)[C@@H]2C[C@@H](OC(=O)[C@H](CO)c3ccccc3)C[C@H]1[C@@H]1O[C@@H]12` (stereo partly shown) [Scopolamine N-butylbromide], the remaining activity at 1.25 µM in experiment [1] (Well no.=3355) was 99.9%. In addition, the remaining activity at 3.75 µM in experiment [2] (Well no.=3355) turned out to be 98.9%.
For `CN1[C@@H]2C[C@@H](OC(=O)[C@H](CO)c3ccccc3)C[C@H]1[C@@H]1O[C@@H]12` [Scopolamine], the remaining activity at 1.25 µM in experiment [1] (Well no.=2245) is 100%. For the same compound, in experiment [2] (Well no.=2245), the remaining activity at 3.75 µM amounted to 100%.
Take `COc1cc2ccc(=O)oc2cc1O` [Scopoletin]: the remaining activity at 1.25 µM in experiment [1] (Well no.=3461) was 103%. For the same compound, the remaining activity at 3.75 µM in experiment [2] (Well no.=3461) amounted to 102%.
As to `O=C1C(C2=C3c4ccccc4NC3/C(=C\c3ccc(O)cc3)C2=O)=C2C(=Nc3ccccc32)/C1=C\c1ccc(O)cc1` (stereo not shown) [Scytonemin, Lyngbya sp.], in experiment [1] (Well no.=2669), the remaining activity at 1.25 µM was found to be 96.6%. In addition, in experiment [2] (Well no.=2669), the remaining activity at 3.75 µM is 101%.
Turning to `C[Se]C[C@H](N)C(=O)O` [Se-(methyl)selenocysteine hydrochloride], the remaining activity at 1.25 µM in experiment [1] (Well no.=1124) was 97.3%. Moreover, the remaining activity at 3.75 µM in experiment [2] (Well no.=1124) amounted to 95.6%.
In the case of `Cc1ncc([N+](=O)[O-])n1CC(C)O` (stereo not shown) [Secnidazole], the remaining activity at 1.25 µM in experiment [1] (Well no.=2247) was found to be 99.7%. Also, the remaining activity at 3.75 µM in experiment [2] (Well no.=2247) was 97.7%.
For the compound `CO[C@@H](C[C@@H]1CC[C@@H](C)[C@](O)(C(=O)C(=O)N2CCCC[C@H]2C(=O)O)O1)/C(C)=C/C=C/C=C/[C@@H](C)C[C@@H](C)C(=O)[C@H](OC)[C@H](O)/C(C)=C/[C@@H](C)C(=O)/C=C/[C@H](C)C[C@@H]1CC[C@@H](O)[C@H](OC)C1` [Seco Rapamycin (sodium salt)], the remaining activity at 1.25 µM in experiment [1] (Well no.=7642) is 97.4%. Besides, the remaining activity at 3.75 µM in experiment [2] (Well no.=7642) was 95.9%.
Turning to `O=C1C=C2C=C[C@@H]3C[C@@]2(O1)[C@H]1CCCCN31` [Securinine], in experiment [1] (Well no.=3749), the remaining activity at 1.25 µM stood at 99.6%. Also, in experiment [2] (Well no.=3749), the remaining activity at 3.75 µM amounted to 100%.
For `CCCCC1OC(=O)C2=CCCCC21` (stereo not shown) [Sedanolide], the remaining activity at 1.25 µM in experiment [1] (Well no.=3751) was 92.6%. The remaining activity at 3.75 µM in experiment [2] (Well no.=3751) amounted to 98.7%.
On to `CC(C)[C@@H]1NC(=O)[C@H](CCCCN)NC(=O)[C@@H](Cc2c[nH]c3ccccc23)NC(=O)[C@H](Cc2ccc(O)cc2)NC(=O)[C@H](C)N(C)C(=O)[C@H](Cc2ccccc2)NC1=O` [Seglitide], for which the remaining activity at 1.25 µM in experiment [1] (Well no.=1452) stood at 97%. Further, the remaining activity at 3.75 µM in experiment [2] (Well no.=1452) amounted to 97.2%.

The values above are taken from publication PMC8286840, “Identifying SARS-CoV-2 antiviral compounds by screening for small molecule inhibitors of Nsp3 papain-like protease” (Biochemical Journal, 2021).
